In the PolyMetriX glass transition set:

| Compound | glass transition temperature [°C] |
| --- | --- |
| *c1ccc(Oc2ccc(-c3ccc(Oc4ccc(N5C(=O)c6ccc(Oc7ccc(-c8ccc(Oc9ccc%10c(c9)C(=O)N(*)C%10=O)cc8)cc7)cc6C5=O)cc4)cc3)cc2)cc1 (repeat unit) | 220.00 |
| *CCOC(=O)Nc1ccc(Cc2ccc(NC(=O)OCCOc3ccc(C(C)(C)c4ccc(O*)cc4)cc3)cc2)cc1 (repeat unit) | 127.00 |
| *O[Si](*)(C)CCCCCCOc1ccc(C(=O)Oc2ccc(C(=O)OCC(C)CC)cc2)cc1 (repeat unit) | -9.00 |
| *c1ccc(Oc2ccc(C(=O)c3ccc(Oc4ccc(C(=O)c5ccc(Oc6ccc(-c7nc8ccccc8n7-c7ccc(-n8c(*)nc9ccccc98)cc7)cc6)cc5)cc4)cc3)cc2)cc1 (repeat unit) | 223.00 |
| *Oc1cccc(C(=O)Nc2ccc(-c3ccc(NC(=O)c4cccc(Oc5nc(*)nc(Sc6ccccc6)n5)c4)cc3)cc2)c1 (repeat unit) | 279.00 |
| *CC(*)OC(=O)C(F)(F)C(F)(F)C(F)(F)C(F)(F)C(F)(F)F (repeat unit) | -9.00 |
| *c1ccc(Oc2ccc(N3C(=O)c4ccc(Oc5ccc(C6(c7ccc(Oc8ccc9c(c8)C(=O)N(*)C9=O)cc7)CCCCCCCCCCC6)cc5)cc4C3=O)cc2)cc1 (repeat unit) | 230.00 |
| *CCCNC(=O)CNC(=O)C(Cc1ccccc1)NC(=O)CCCCCCCCC(=O)NC(Cc1ccccc1)C(=O)NCC(=O)NCCCOCCOCCO* (repeat unit) | 36.00 |
| *c1ccc(Oc2ccc(N3C(=O)C(C)C(SCCOCCSC4C(=O)N(c5ccc(Oc6ccc(N7C(=O)CC(C)(SCCOCCSC8(C)CC(=O)N(*)C8=O)C7=O)cc6)cc5)C(=O)C4C)C3=O)cc2)cc1 (repeat unit) | 145.00 |
| *CC(*)(CC(=O)OC)C(=O)OC12CC3CC(C)(CC(C)(C3)C1)C2 (repeat unit) | 144.00 |
| *CC(*)(C)C(=O)OCCN(C)C (repeat unit) | 28.62 |
| *C(=O)Nc1ccc(Oc2ccc(NC(=O)c3ccc4c(c3)C(=O)N(c3ccc(S(=O)(=O)c5ccc(N6C(=O)c7ccc(*)cc7C6=O)cc5)cc3)C4=O)cc2)cc1 (repeat unit) | 281.00 |
| *CCC(c1ccccc1)C(*)c1ccccc1 (repeat unit) | 104.30 |
| *Nc1ccc(Cc2ccc(NC(=O)CCCCCCCCC(*)=O)cc2)cc1 (repeat unit) | 160.00 |
| *c1ccc(-c2nc3cc4sc(*)nc4cc3s2)cc1 (repeat unit) | 25.00 |
| *c1ccc(Oc2ccc(C3(c4ccc(Oc5ccc(-c6nnc(*)c7c(-c8ccc(F)cc8)c(-c8ccc(F)cc8)c(-c8ccc(F)cc8)c(-c8ccc(F)cc8)c67)cc5)cc4)c4ccccc4-c4ccccc43)cc2)cc1 (repeat unit) | 321.00 |
| *Oc1ccc(NC(=O)NC2CC(C)(C)CC(C)(CNC(=O)Nc3ccc(*)cc3)C2)cc1 (repeat unit) | 274.00 |
| *Nc1ccc(NC(=O)c2ccc(C(*)=O)cc2)cc1 (repeat unit) | 295.00 |
| *Oc1ccc(CC(NC(=O)CCc2ccc(OC(=O)CCC(*)=O)cc2)C(=O)OCc2ccccc2)cc1 (repeat unit) | 78.00 |
| *c1ccc(-c2ccc3c(c2)C(CCCCCCCC)(CCCCCCCC)c2cc(-c4ccc(N(*)c5ccc(N(c6ccc(C(C)(C)c7ccccc7)cc6)c6ccc(C(C)(C)c7ccccc7)cc6)cc5)cc4)ccc2-3)cc1 (repeat unit) | 137.00 |
| *CCCCCCCCCOC(=O)C(O)C(O)C(=O)O* (repeat unit) | -11.00 |
| *Oc1ccc(Oc2ccc(Oc3ccc(C(C)(C)c4ccc(*)cc4)cc3)cc2)cc1 (repeat unit) | 122.00 |

| Compound | glass transition temperature [°C] |
| --- | --- |
| *c1ccc(Oc2ccc(-c3cnc4ccc(-c5ccc6nc(*)cnc6c5)cc4n3)cc2)cc1 (repeat unit) | 280.00 |
| *CC(C)(CO*)COCC(F)(F)C(F)(F)C(F)(F)F (repeat unit) | -45.00 |
| *CC1(*)OCC(c2ccccc2)O1 (repeat unit) | 75.00 |
| *CC(*)C(=O)OCCOc1ccc(C(C)(C)c2ccc(OCCO)cc2)cc1 (repeat unit) | 22.00 |
| *CCCCCN1C(=O)c2ccc(C(=O)Oc3ccc(-c4ccc(OC(=O)c5ccc6c(c5)C(=O)N(*)C6=O)cc4)cc3)cc2C1=O (repeat unit) | 147.00 |
| */C=C(/*)c1ccccc1[Si](C)(C)C (repeat unit) | 190.00 |
| *c1sc(*)c(CCCCCCN(CC)c2ccc(/N=N/c3ccc([N+](=O)[O-])cc3)cc2)c1CCCCCC (repeat unit) | 17.00 |
| *CCCCOc1ccc(OC(=O)c2ccc(C(=O)Oc3ccc(O*)cc3)c(C(=O)OCC=C)c2)cc1 (repeat unit) | 56.00 |
| *CCCCSSCCCCO* (repeat unit) | -76.00 |
| *CC(*)c1ccc2ccccc2c1 (repeat unit) | 146.50 |
| *Oc1c(C)cc(-c2cc(C)c(Oc3ccc(C(=O)c4ccccc4-c4ccccc4C(=O)c4ccc(*)cc4)cc3)c(C)c2)cc1C (repeat unit) | 233.00 |
| *c1ccc(C(=O)Nc2ccc(Oc3ccc(NC(=O)c4ccc(Oc5ccc(-c6nn(*)c(=O)c7ccccc67)c6ccccc56)cc4)cc3)cc2)cc1 (repeat unit) | 317.50 |
| *O[Si](*)(C)OCCCCCCCCCCCOc1ccc(C2COC(c3ccc(OCC(C)CC)cc3)OC2)cc1 (repeat unit) | 30.00 |
| *c1ccc(Oc2cccc(-c3cc(-c4ccccc4)cc(-c4cccc(Oc5ccc(-n6c(=O)c7cc8c(=O)n(*)c(=O)c8cc7c6=O)cc5)c4)n3)c2)cc1 (repeat unit) | 264.00 |
| *c1ccc(-c2nc3ccc(Oc4ccc5nc(*)c(-c6ccccc6)c(-c6ccccc6)c5c4)cc3c(-c3ccccc3)c2-c2ccccc2)cc1 (repeat unit) | 345.00 |
| *Nc1ccc(C(=O)c2ccc(C(=O)c3ccc(Nc4ccc5c(c4)c4cc(*)ccc4n5CC(CC)CCCC)cc3)cc2)cc1 (repeat unit) | 213.00 |
| *CC(*)C(=O)Oc1ccccc1C (repeat unit) | 51.50 |
| *CC(*)C(=O)OC(C)C (repeat unit) | -5.00 |
| *Oc1ccc(CC(NC(=O)Cc2ccc(OC(=O)CCCCCCCCC(*)=O)cc2)C(=O)OCC)cc1 (repeat unit) | 43.00 |
| *C(=O)c1ccc2c(c1)C(=O)N(c1ccc(-c3ccc(N4C(=O)c5ccc(*)cc5C4=O)c(OCCCCCCOc4ccc(/C=C/c5ccc(F)cc5)cc4)c3)cc1OCCCCCCOc1ccc(/C=C/c3ccc(F)cc3)cc1)C2=O (repeat unit) | 128.00 |
| *CC(CC(*)(C#N)C#N)c1ccc(Cl)cc1 (repeat unit) | 180.00 |
| *Oc1cccc(Oc2cccc(NC(=O)c3cc(Oc4ccc(C(=O)O)c(C(=O)Nc5cccc(*)c5)c4)ccc3C(=O)O)c2)c1 (repeat unit) | 176.40 |
